Legend:
[1] = tested on: MDCK-MDR1; parameters: method as in PMID 23909910; settings: cited from earlier work
[2] = target: GluN1/GluN2C (Rattus norvegicus, UniProt Q00961); parameters: GluN2B (NM_012574.1), GluN2C (NM_012575.3), and GluN2D (NM_022797.2) were provided by; expressed in transfected cells; host or cells: Xenopus laevis oocytes (cRNA injection); settings: reproduced for comparison; cited from earlier work
[3] = target: T1, -GABAC (Rattus norvegicus, UniProt P50572); experiment: Off-target, oocytes, GABAC; type: cell-based; settings: 1 µM compound; 100 µM GABA
T1 construct: expressed in transfected cells; host or cells: Xenopus oocytes (cRNA injection)
T1 sequence (P50572 22-480): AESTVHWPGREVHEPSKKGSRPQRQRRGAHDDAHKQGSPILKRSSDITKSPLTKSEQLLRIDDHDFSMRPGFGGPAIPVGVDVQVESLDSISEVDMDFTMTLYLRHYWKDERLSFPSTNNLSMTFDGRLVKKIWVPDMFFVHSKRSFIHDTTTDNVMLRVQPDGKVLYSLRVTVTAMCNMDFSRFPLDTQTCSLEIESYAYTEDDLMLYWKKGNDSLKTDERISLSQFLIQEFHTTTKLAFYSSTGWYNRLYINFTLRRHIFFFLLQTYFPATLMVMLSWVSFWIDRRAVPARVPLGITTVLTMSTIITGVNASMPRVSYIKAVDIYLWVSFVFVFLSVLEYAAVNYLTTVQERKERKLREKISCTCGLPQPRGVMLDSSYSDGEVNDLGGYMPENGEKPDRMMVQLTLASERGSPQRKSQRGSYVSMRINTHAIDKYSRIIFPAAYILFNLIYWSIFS
Method: (§1) Analysis of Off-target Actions
(§2) Compound (S)-(-)-2i was tested at 1 µM for actions at glycine-activated GluN1/GluN3A (human GluN1-F484A,T518L/GluN3A referred to a GluN1-FA,TL/GluN3A) and rat GluN1-4a/GluN3B in the presence of 0.5 µM CGP-78608. cRNA injection ratios for GluN1/GluN3 were 1:2. Compound (S)-(-)- 2i was also tested for actions at AMPA (rat GluA1, rat GluA2, human GluA3-L531Y), kainate (rat GluK2), nicotinic acetylcholine (rat α7 and α4β2, cRNA ratio 1:1), GABAA (rat α1β2γ2S, cRNA ratio 1:1:1), GABAC (rat ρ1), glycine (rat α1), and purinergic (human P2X) receptors expressed in Xenopus oocytes. cRNA encoding the receptor subunits was synthesized from linear template cDNA using the mMessage mMachine kit (Ambion). Oocytes were injected with 1-5 ng cRNA in a 50 nL volume and incubated in Barth's solution at 15°C for 2-5 days prior to recording. GluK2-expressing oocyte were incubated in 1 mg/ml (10 µM) concanavalin-A for 10 min prior to recording. The cDNAs encoding GABAC and glycine subunits were provided by Dr. D. Weiss (University of Texas Health Science Center at San Antonio). cDNAs encoding nicotinic acetylcholine receptor subunits were provided by Drs. […]
(§3) GABA. […] Responses in presence of test compound were expressed as a percent of control. […]

[4] = target: GluN1-4a/GluN3B (Rattus norvegicus, UniProt P35439+Q8VHN2); experiment: Off-target, oocytes, GluN1-4a/GluN3B; type: cell-based; settings: 1 µM compound; 100 µM glycine
GluN1-4a/GluN3B, sequence (Q8VHN2 25-1002, other chains not shown): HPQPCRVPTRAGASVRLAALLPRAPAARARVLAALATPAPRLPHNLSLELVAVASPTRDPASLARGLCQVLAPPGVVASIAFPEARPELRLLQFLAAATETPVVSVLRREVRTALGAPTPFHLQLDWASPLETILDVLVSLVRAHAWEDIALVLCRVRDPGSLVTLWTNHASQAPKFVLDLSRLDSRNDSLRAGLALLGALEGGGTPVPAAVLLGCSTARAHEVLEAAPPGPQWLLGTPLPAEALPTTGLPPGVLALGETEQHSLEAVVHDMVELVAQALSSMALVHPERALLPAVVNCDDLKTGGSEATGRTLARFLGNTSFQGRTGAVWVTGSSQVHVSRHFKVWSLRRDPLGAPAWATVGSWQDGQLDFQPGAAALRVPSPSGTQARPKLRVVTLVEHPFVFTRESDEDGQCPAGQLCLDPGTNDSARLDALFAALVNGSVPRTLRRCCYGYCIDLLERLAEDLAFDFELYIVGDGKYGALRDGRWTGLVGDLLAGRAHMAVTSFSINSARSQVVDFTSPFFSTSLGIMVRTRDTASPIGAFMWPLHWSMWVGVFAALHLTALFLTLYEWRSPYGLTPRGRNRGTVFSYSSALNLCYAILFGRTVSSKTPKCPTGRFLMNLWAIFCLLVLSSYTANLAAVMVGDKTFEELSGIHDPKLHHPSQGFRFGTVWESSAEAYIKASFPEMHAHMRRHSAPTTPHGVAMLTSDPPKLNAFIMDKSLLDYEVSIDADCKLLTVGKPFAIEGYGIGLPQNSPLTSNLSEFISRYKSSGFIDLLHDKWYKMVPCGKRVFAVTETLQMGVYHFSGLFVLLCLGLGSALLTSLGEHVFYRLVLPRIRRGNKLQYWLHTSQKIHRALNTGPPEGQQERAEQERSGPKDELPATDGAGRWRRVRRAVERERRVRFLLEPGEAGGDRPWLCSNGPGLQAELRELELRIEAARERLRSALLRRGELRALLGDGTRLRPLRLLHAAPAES
Method: as §1, §2, §3

[5] = target: 42-nACh (Rattus norvegicus, UniProt P09483+P12390); experiment: Off-target, oocytes, nicotinic acetylcholine 42; type: cell-based; settings: 1 µM compound; 10 µM acetylcholine
42-nACh, sequence (P09483 31-630): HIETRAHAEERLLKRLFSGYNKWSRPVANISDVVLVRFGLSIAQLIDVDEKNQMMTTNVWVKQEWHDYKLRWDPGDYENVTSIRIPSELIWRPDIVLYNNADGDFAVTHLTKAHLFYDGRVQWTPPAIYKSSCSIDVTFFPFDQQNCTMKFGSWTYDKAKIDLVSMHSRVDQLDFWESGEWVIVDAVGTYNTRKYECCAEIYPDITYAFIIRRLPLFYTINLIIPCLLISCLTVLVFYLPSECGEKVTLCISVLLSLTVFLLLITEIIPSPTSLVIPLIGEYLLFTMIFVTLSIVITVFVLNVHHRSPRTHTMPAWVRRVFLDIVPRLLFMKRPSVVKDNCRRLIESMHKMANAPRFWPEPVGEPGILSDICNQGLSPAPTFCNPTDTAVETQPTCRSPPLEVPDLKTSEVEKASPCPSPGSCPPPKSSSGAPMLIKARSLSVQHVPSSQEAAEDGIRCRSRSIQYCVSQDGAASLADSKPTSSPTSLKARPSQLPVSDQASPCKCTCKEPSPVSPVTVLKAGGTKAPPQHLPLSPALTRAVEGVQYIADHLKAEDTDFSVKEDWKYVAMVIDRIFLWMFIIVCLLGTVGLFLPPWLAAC
42-nACh, sequence (P12390 25-500): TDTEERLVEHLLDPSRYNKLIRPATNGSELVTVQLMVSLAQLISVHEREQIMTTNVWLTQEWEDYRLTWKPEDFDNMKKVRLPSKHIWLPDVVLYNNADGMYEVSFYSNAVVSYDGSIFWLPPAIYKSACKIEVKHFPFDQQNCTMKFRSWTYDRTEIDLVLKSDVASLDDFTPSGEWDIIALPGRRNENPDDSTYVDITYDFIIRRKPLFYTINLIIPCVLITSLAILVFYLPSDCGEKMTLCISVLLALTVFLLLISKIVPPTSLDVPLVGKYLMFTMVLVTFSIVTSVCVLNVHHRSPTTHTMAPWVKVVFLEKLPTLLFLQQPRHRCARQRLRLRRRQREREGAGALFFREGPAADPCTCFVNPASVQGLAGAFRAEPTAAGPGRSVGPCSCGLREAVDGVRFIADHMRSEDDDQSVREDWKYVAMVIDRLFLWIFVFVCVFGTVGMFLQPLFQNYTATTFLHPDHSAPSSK
Method: as §1, §2, §3

GluN1/GluN2C, sequence (Q00961 20-1237, other chains not shown): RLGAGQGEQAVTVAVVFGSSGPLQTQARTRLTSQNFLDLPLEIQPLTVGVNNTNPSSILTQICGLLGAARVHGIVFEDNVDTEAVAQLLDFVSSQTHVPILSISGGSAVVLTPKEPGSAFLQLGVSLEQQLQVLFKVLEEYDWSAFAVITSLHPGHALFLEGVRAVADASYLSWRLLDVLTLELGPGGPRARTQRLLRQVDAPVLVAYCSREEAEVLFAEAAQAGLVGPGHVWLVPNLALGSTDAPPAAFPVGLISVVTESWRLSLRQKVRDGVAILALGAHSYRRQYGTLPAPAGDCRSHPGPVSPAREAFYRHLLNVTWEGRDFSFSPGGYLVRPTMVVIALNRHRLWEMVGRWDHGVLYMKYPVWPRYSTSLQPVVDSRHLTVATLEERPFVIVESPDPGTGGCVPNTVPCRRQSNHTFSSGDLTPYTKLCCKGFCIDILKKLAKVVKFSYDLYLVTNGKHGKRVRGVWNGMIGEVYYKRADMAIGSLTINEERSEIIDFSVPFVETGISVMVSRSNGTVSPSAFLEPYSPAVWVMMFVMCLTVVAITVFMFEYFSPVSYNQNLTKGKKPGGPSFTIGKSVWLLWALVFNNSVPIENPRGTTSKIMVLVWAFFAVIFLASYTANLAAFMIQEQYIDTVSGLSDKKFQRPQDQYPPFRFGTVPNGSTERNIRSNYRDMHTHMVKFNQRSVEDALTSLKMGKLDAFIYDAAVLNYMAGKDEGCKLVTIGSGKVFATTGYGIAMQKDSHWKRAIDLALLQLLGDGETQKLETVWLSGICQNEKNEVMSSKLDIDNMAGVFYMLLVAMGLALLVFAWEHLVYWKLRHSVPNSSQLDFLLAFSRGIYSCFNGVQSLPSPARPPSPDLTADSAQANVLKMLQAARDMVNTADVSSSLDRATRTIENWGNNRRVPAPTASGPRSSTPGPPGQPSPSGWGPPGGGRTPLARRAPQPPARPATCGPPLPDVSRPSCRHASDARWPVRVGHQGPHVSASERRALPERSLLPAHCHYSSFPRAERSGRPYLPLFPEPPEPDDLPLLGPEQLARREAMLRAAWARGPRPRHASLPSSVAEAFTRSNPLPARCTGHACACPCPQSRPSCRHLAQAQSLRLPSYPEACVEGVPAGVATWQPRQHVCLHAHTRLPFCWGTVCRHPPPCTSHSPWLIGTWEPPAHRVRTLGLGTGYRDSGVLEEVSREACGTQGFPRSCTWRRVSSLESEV

Row | Structure (SMILES) | Papp ([1]; cell-membrane permeability) | P-glycoprotein (P-gp)-mediated efflux ratio (ER) [1] | I 30 μM / I control GluN2C [2] | % control -GABAC [3] | % control GluN1-4a/GluN3B [4] | % control 42-nACh [5]
1 | O=C(O)CCC(=O)N1N=C(c2c(-c3ccc(Cl)cc3)c3ccccc3[nH]c2=O)CC1c1ccc(Cl)cc1 (stereo not drawn) [2a] | 0.47 × 10^–6 cm/s | 55 | 3.1 ± 0.6 (2,6) % | – | – | –
2 | O=C(O)CC(F)(F)C(=O)N1N=C(c2c(-c3ccc(Cl)cc3)c3ccccc3[nH]c2=O)C[C@H]1c1ccc(Cl)cc1 [(S)-(−)-2i] | – | – | – | 96 ± 1.2% | 97 ± 1.0% | 91 ± 2.1%

From paper PMC10485906, “Development of a Dihydroquinoline–Pyrazoline GluN2C/2D-Selective Negative Allosteric Modulator of the N-Methyl-D-aspartate Receptor” (ACS Chemical Neuroscience, 2023)
